According to patent US4786651A, “Treatment of cutaneous hyperproliferative dermatoses with manoalide” (Allergan, Inc., priority 1986, dated 1988):

Key:
[1] = system: ODC; conditions: tape-stripped mouse epidermis; M. Connor and N. Lowe 1983; cited from earlier work
[2] = system: humans; conditions: cited from earlier work
[3] = system: keratinocytes; assay: Inhibition of DNA synthesis in neonatal mouse keratinocyte cultures (3H-thymidine; In Vitro Assay); format: cell-based, mouse (neonatal balb/c); conditions: daily drug for three days; FIG. 2
Excerpt: (§1) Tape-stripping mouse epidermis is quick and convenient method of inducing ODC activity that avoids the necessity of handling carcinogens. M. Connor and N. Lowe (J. Invest. Dermatol 43, 5174, 1983) have studied the ability of retinoids to inhibit ODC. […] In vitro methods have also been useful in determining the anti-hyperproliferative activity of drugs. C. Marcelo and J. Tomich (J. Invest. Dermatol. 81, 64s, 1983) have shown that neonatal mouse keratinocyte cultures can be used to identify drugs that inhibit DNA synthesis. More recently, R. Weiss, Eichner, R. and Sunn, T. T, J. Cell Biol., 98: 1397-1406, (1984) have shown that epidermal cultures are in fact, a model of epidermal hyperproliferation and therefore a good model for testing drugs that inhibit hyperporliferation.
Keratinocytes from 1-2 day old neonatal balb/c mice were used. Cells were plated in 35 mm culture dishes in M199 medium containing 10% FCS and incubated at 37° C. in 5% CO2. Cells were allowed to reach confluency at which time 0.01, 0.1, 1.0, 10 and 20 μM manoalide was added in DMSO. Fresh media and drug were added each day to culture for three days. On the fourth day cells were pulsed with ^3 H-thymidine (1 µCi/ml) to determine how much manoalide inhibited DNA syntheses (CPM/μg DNA).

[4] = system: ornithine decarboxylase (ODC); assay: Tape-stripped epidermal ODC activity in female hairless mice (In Vivo Assay); parameters: species or system mouse (female hairless mice)
Excerpt: as §1
Female hairless mice were tape-stripped and ODC activity determined according to the method of M. Connor and N. Lowe (J. Invest. Dermatol. 43, 5174, 1983).
**50 mg/kg; IP, 30 min before tapestripping

SMILES | inhibition of ODC [1] | therapeutic activity in humans [2] | inhibition of keratinocyte DNA synthesis [3] | % Inhibition (ODC) ([4]; 50 mg/kg, IP, 30 min before tapestripping, p < .05) [%] | ODC ([4]; 50 mg/kg, IP, 30 min before tapestripping, vehicle (soybean oil) 6.1 ± 1.2) | inhibition of tape-stripped ODC after systemic administration ([4]; systemic administration)
CC1=C(/C=C/C(C)=C/C=C/C(C)=C\C(=O)O)C(C)(C)CCC1 [13-cis retinoic acid] | active at inhibiting ODC | therapeutically active in humans | – | – | – | –
CC1=C(CC/C(C)=C/CCC2=CCC(C3=CC(=O)OC3O)OC2O)C(C)(C)CCC1 (stereo not shown) [Manoalide] | – | – | inhibit keratinocyte DNA synthesis in a dose related fashion | 54 | 2.8 ± 0.6 nmoles ^14 CO2 (mg protein/mg protein/hr) | can also inhibit tape-stripped ODC
CC1=C(/C=C/C(C)=C/C=C/C(C)=C/C(=O)O)C(C)(C)CCC1 [Trans-retinoic acid] | active at inhibiting ODC | therapeutically active in humans | – | – | – | –
CCOC(=O)/C=C(C)/C=C/C=C(C)/C=C/c1c(C)cc(OC)c(C)c1C [etretinate] | active at inhibiting ODC | therapeutically active in humans | – | – | – | –
